Experimental data reported in patent publication US20200207782A1, “CHEMICALLY ACTIVATED WATER-SOLUBLE PRODRUG” (SUMITOMO DAINIPPON PHARMA CO., LTD, priority 2017, published 2020).
In brackets after ≈: the same amount, converted by molar mass. Several values for one entry are separate records, joined by “and”; a condition that tells them apart may be missing. Identical values can stand only once. Counter-ions that a name gives are not always drawn.

How the values were obtained:
physchem = settings: pH 2, aqueous buffer, thermodynamic from solid
Experimental: (§7) The solubility of the water-soluble prodrugs described in the Examples and the Reference Examples was measured. […] The filtrate was measured by HPLC.

[1] = Evaluation of conversion rate to active form in CD1 mouse plasma; assay type: in vitro ADME; settings: CD1, mouse, 10 umol/L
Experimental: (§1) The ratio of decrease of a test compound and the conversion ratio to a corresponding active form (2-acetylthieno[3,2-f][1]benzofuran-4,8-dione) in human plasma and CD1 mouse plasma were measured for Example 1.
(§2) The test compounds were incubated at 37° C. at a concentration of 10 umol/L in human plasma (cat. no. 12250210, Cosmo Bio) and CD1 mouse plasma (cat. no. AP3054, KAC) and retrieved for a given time (0, 5, 10, 30, 60, and 120 minutes) and deproteinized, then analyzed by LC-MS. Acetonitrile comprising each of 10% quantity of 1 mol/L hydrochloric acid, 1% quantity of 46% citric acid, and phenytoin as an internal standard was used for deproteinization.
(§3) LC-MS measurement conditions were the following.
(§4) The yield of the Examples compounds and active form 2-acetylthieno[3,2-f][1]benzofuran-4,8-dione is calculated with each of the peak area of the Example compounds at 0 minutes and the peak area upon dissolution of 2-acetylthieno[3,2-f][1]benzofuran-4,8-dione at 100 umol/L as 100%. The yield is denoted in terms of %.
(§5) In the same manner as Example 1, the conversion ratio to an active form was measured for each of the various test compounds in human plasma and CD1 mouse plasma, with incubation time as 120 minutes. It was confirmed that the series of compounds of the invention was converted to an active form with a small interspecies difference in human plasma and CD1 mouse plasma.
(§6) The yield of the active forms is calculated with the each peak area upon dissolution of the generated active form at 100 umol/L as 100%. The yield is denoted in terms of %.

[2] = Evaluation of conversion rate to active form in human plasma; assay type: in vitro ADME; settings: human, 10 umol/L
Experimental: as §1, §2, §3, §4, §5, §6

[3] = Solution stability test (residual ratio and generation of active form in buffers of pH 2.0 to 9.0); assay type: physicochemical; design: Rate of generation of active form after 24 hours in buffer with pH of 7.4: tested at 25 µM; settings: for Residual ratio / Rate of generation of active form after 24 hours in buffer with pH of 7.4: 25° C.; for Residual ratio: 25 umol/L; for Degradation behaviour in buffers (in words): pH 2.0 to 9.0; for Rate of generation of active form after 24 hours in buffer with pH of 7.4: pH 7.4 buffer
Experimental: The test compounds were incubated at 25° C. at a concentration of 25 umol/L in a buffer prepared to have a pH of 2.0, 3.0, 5.0, 7.4, and 9.0. The compounds were measured by HPLC after 0, 3, 6, 9, 12, and 24 hours.
The buffers used at each pH are the following. • pH 2.0: 50 mmol/L glycine buffer • pH 3.0: 50 mmol/L citrate buffer • pH 5.0: 50 mmol/L citrate buffer • pH 7.4: 50 mmol/L phosphate buffer • pH 9.0: 50 mmol/L glycine buffer
The measurement conditions for HPLC are the following.
The yield of the Example and Reference Example compounds and active forms is calculated with each of the peak area of the Example and Reference Example compounds at 0 minutes and the peak area upon dissolution of the corresponding active form at 100 umol/L as 100%. The yield is denoted in terms of %

[4] = pH 2
Experimental: as §7

CC(=O)c1cc2c(o1)C(=O)c1sccc1C2=O [2-acetylthieno[3,2-f][1]benzofuran-4,8-dione, reference compound]
solubility at 24 h (physchem; 50 mmol/L glycine buffer): 4 µg/mL (≈ 16.2 µM)
Measurement value % of active form (conversion ratio to active form) ([1]; 0 min): 0.0%
Measurement value % of active form (conversion ratio to active form) ([1]; 5 min): 21.1%
Measurement value % of active form (conversion ratio to active form) ([1]; 10 min): 36.7%
Measurement value % of active form (conversion ratio to active form) ([1]; 30 min): 70.8%
Measurement value % of active form (conversion ratio to active form) ([1]; 60 min): 73.8%
Measurement value % of active form (conversion ratio to active form) ([1]; 120 min): 71.4%
Measurement value % of active form (conversion ratio to active form) ([2]; 0 min): 0.0%
Measurement value % of active form (conversion ratio to active form) ([2]; 5 min): 36.4%
Measurement value % of active form (conversion ratio to active form) ([2]; 10 min): 51.6%
Measurement value % of active form (conversion ratio to active form) ([2]; 30 min): 83.4%
Measurement value % of active form (conversion ratio to active form) ([2]; 60 min): 89.7%
Measurement value % of active form (conversion ratio to active form) ([2]; 120 min): 91.3%

C[C@H]1COc2c1c(OC(=O)NCCNCC(=O)O)c(OC(=O)NCCNCC(=O)O)c1c3c(ccc21)C(C)(C)CCC3 [Example 12, 2,2′-{[(1R)-1,6,6-trimethyl-1,2,6,7,8,9-hexahydrophenanthro [1,2-b]furan-10,11-diyl]bis(oxycarbonylazanediylethane-2,1-diylazanediyl)}diacetic acid dihydrochloride]
solubility at 24 h (physchem): > 10000 µg/mL
Residual ratio ([3]; pH2.0 buffer, 0 hr): 100%
Residual ratio ([3]; pH2.0 buffer, 3 hr): 99.4%
Residual ratio ([3]; pH2.0 buffer, 6 hr): 98.9%
Residual ratio ([3]; pH2.0 buffer, 9 hr): 98.7%
Residual ratio ([3]; pH2.0 buffer, 12 hr): 98.5%
Residual ratio ([3]; pH2.0 buffer, 24 hr): 98.5%
Degradation behaviour in buffers (in words) [3]: pH dependent and chemical degradation progressed
Residual ratio ([3]; pH3.0 buffer, 0 hr): 100%
Residual ratio ([3]; pH3.0 buffer, 3 hr): 99.2%
Residual ratio ([3]; pH3.0 buffer, 6 hr): 98.9%
Residual ratio ([3]; pH3.0 buffer, 9 hr): 98.6%
Residual ratio ([3]; pH3.0 buffer, 12 hr): 98.4%
Residual ratio ([3]; pH3.0 buffer, 24 hr): 98.3%
Residual ratio ([3]; pH5.0 buffer, 0 hr): 100%
Residual ratio ([3]; pH5.0 buffer, 3 hr): 99.1%
Residual ratio ([3]; pH5.0 buffer, 6 hr): 98.1%
Residual ratio ([3]; pH5.0 buffer, 9 hr): 97.1%
Residual ratio ([3]; pH5.0 buffer, 12 hr): 96.4%
Residual ratio ([3]; pH5.0 buffer, 24 hr, dihydrochloride): 93% and 93.3%
Residual ratio ([3]; pH7.4 buffer, 0 hr): 100%
Residual ratio ([3]; pH7.4 buffer, 3 hr): 9.8%
Residual ratio ([3]; pH7.4 buffer, 6 hr): 1.7%
Residual ratio ([3]; pH7.4 buffer, 9 hr): 1.4%
Residual ratio ([3]; pH7.4 buffer, 12 hr): 0%
Residual ratio ([3]; pH7.4 buffer, 24 hr): 0%
Rate of generation of active form after 24 hours in buffer with pH of 7.4 [3]: 11%
Stability in solution (in words) ([3]; pH of 2.0, 25° C.): stable
Stability in solution (in words) ([3]; pH of 3.0, 25° C.): stable

C[C@H]1COC2=C1C(=O)C(=O)c1c2ccc2c1CCCC2(C)C [(1R)-1,6,6-trimethyl-1,2,6,7,8,9-hexahydrophenanthro[1,2-b]furan-10,11-dione]
Solubility in buffer [4]: Below

C[C@H]1COc2c1c(OC(=O)NCCCNCC(=O)O)c(OC(=O)NCCCNCC(=O)O)c1c3c(ccc21)C(C)(C)CCC3 [Example 13, 2,2′-{[(1R)-1,6,6-trimethyl-1,2,6,7,8,9-hexahydrophenanthro[1,2-b]furan-10,11-diyl]bis(oxycarbonylazanediylpropane-3,1-diylazanediyl)}diacetic acid dihydrochloride]
solubility at 24 h (physchem): > 10000 µg/mL
Degradation behaviour in buffers (in words) [3]: pH dependent and chemical degradation progressed
Residual ratio ([3]; pH3.0 buffer, 0 hr): 100%
Residual ratio ([3]; pH3.0 buffer, 3 hr): 100%
Residual ratio ([3]; pH3.0 buffer, 6 hr): 100%
Residual ratio ([3]; pH3.0 buffer, 9 hr): 99.8%
Residual ratio ([3]; pH3.0 buffer, 12 hr): 99.6%
Residual ratio ([3]; pH3.0 buffer, 24 hr): 100%
Residual ratio ([3]; pH5.0 buffer, 0 hr): 100%
Residual ratio ([3]; pH5.0 buffer, 3 hr): 99.4%
Residual ratio ([3]; pH5.0 buffer, 6 hr): 99.2%
Residual ratio ([3]; pH5.0 buffer, 9 hr): 99.0%
Residual ratio ([3]; pH5.0 buffer, 12 hr): 98.6%
Residual ratio ([3]; pH5.0 buffer, 24 hr): 98.4%
Residual ratio ([3]; pH7.4 buffer, 0 hr): 100%
Residual ratio ([3]; pH7.4 buffer, 3 hr): 61.8%
Residual ratio ([3]; pH7.4 buffer, 6 hr): 42.6%
Residual ratio ([3]; pH7.4 buffer, 9 hr): 28.5%
Residual ratio ([3]; pH7.4 buffer, 12 hr): 19.1%
Residual ratio ([3]; pH7.4 buffer, 24 hr, dihydrochloride): 6% and 6.1%
Rate of generation of active form after 24 hours in buffer with pH of 7.4 [3]: 5%
Residual ratio ([3]; pH9.0 buffer, 0 hr): 100%
Residual ratio ([3]; pH9.0 buffer, 3 hr): 99.7%
Residual ratio ([3]; pH9.0 buffer, 6 hr): 99.4%
Residual ratio ([3]; pH9.0 buffer, 9 hr): 99.3%
Residual ratio ([3]; pH9.0 buffer, 12 hr): 99.1%
Residual ratio ([3]; pH9.0 buffer, 24 hr): 100%
Stability in solution (in words) ([3]; pH of 2.0, 25° C.): stable
Stability in solution (in words) ([3]; pH of 3.0, 25° C.): stable
Stability in solution (in words) ([3]; pH of 5.0, 25° C.): stable
